Holding throughout (assay): inhibition of tumour cell growth, NCI panel, 48 h
Experiment [1] has as its system DLD-1.
Experiment [2] concerns DMS-114.
Experiment [3] has as its system DMS-273.
Experiment [4] deals with HOP-18.
The test system of experiment [5] is KM-20L2.
Experiment [6] concerns SNB-78.
The subject of experiment [7] is XF498.
Experiment [8] deals with M19-MEL.
The subject of experiment [9] is RXF 631.

21 compounds from ChEMBL document CHEMBL1201862, “PubChem BioAssay data set” (2004) can be followed below.

The structures appear in SMILES notation.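 Protocol summary: plate cells (96-well), add compound at 5 concentrations, incubate 48 h, interpolate endpoints linearly. Abbreviation: GI50, concentration required for 50% inhibition of growth.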 Active and inactive are the calls of the source. Cut-off read from the data, not from the text of the source: active = GI50 up to about 1.1 µM and inactive = higher.

In the case of `C1COCCSC2=C(SCCO1)SC(=C1SC3=C(SCCOCCOCCS3)S1)S2`, the GI50 in experiment [1] was > 100 µM (inactive); in experiment [2], 63.5 µM (inactive); in [3], > 100 µM (inactive); in [4], > 100 µM (inactive); in experiment [5], > 100 µM (inactive); in experiment [6], 38 µM (inactive). Besides, the GI50 in experiment [7] is 28.6 µM (inactive).

Turning to `CCOc1ccc(/N=C/c2c3ccccc3nc3ccccc23)cc1`, the GI50 in [1] was 24.7 µM (inactive); in experiment [2] it was 25.1 µM (inactive); in experiment [3], 32.4 µM (inactive); in [4], > 100 µM (inactive); in experiment [5], 40.2 µM (inactive); in experiment [8], > 100 µM (inactive). Moreover, the GI50 was > 100 µM (inactive) in experiment [9], > 100 µM (inactive) in experiment [6] and 65.6 µM (inactive) in experiment [7].

As to `CCCCCN(CCCCC)C(=O)[C@H](CCC(=O)O)NC(=O)c1cc2ccccc2[nH]1`, the GI50 in [1] was 38.3 µM (inactive); in experiment [2], 52.5 µM (inactive); in experiment [3], 49.2 µM (inactive); in experiment [5], 55.3 µM (inactive); in experiment [8], 45.5 µM (inactive); in [6] it was 95.1 µM (inactive). For the same compound, the GI50 in experiment [7] is 44.9 µM (inactive).

As to `CCCc1nc(NC#N)nc(C(=O)Nc2ccccc2)c1CC`, the GI50 in experiment [1], in experiment [2], in [3], in [4], in [5] and in [8] was > 100 µM (inactive) throughout. For the same compound, the GI50 in [9], in experiment [6] and in [7] was > 100 µM (inactive) throughout.

Turning to `S=c1sc2c(S)nc(S)nc2n1-c1ccccc1`, the GI50 was > 100 µM (inactive) in experiment [1]; 75.5 µM (inactive) in experiment [2]; > 100 µM (inactive) in experiment [3]; > 100 µM (inactive) in [4]; > 100 µM (inactive) in experiment [5]; > 100 µM (inactive) in [8]. The GI50 in [6] and in [7] was > 100 µM (inactive) throughout.

In the case of `CC1=C(C(=O)Nc2ccc(Cl)c(Cl)c2)C(c2ccco2)C(C(=O)Nc2ccc(Cl)c(Cl)c2)=C(C)N1`, the GI50 was 10.3 µM (inactive) in [1]; 9.16 µM (inactive) in [2]; 16 µM (inactive) in experiment [3]; 12.5 µM (inactive) in experiment [4]; 11.8 µM (inactive) in experiment [8]; 12.9 µM (inactive) in [9]. The results for the GI50 in experiment [6] and in [7] were 17.3 µM (inactive) and 1.11 µM (active), respectively.

On to `C#CCOCn1cnc2c(S)ncnc21`, for which the GI50 in experiment [1], in [2], in [3], in experiment [5], in experiment [8] and in experiment [9] was > 100 µM (inactive) each time. Further, in [7], the GI50 was > 100 µM (inactive).

On to `Nc1ccc(/C=C/c2ccnc3ccccc23)cc1`, for which the GI50 is 22.9 µM (inactive) in experiment [1]; 15.1 µM (inactive) in [2]; 18.1 µM (inactive) in experiment [3]; 20.2 µM (inactive) in [5]; 31 µM (inactive) in [8].

In the case of `CCc1ccc(/C=C\c2cc(OC)c(OC)c(OC)c2)cc1`, the GI50 in [1] was 0.378 µM (active); in [2] it was 0.0508 µM (active); in experiment [3], 0.305 µM (active); in experiment [4], 0.48 µM (active); in experiment [5], 0.0342 µM (active); in experiment [8], 0.163 µM (active). Moreover, in [6], the GI50 is 0.15 µM (active).

For `C/C(=N\O)C(CN1CCCCC1)C(c1ccccc1)c1c(O)c2ccccc2oc1=O` (stereo unspecified), the GI50 in experiment [1], in [2], in experiment [5], in experiment [8] and in [7] was > 100 µM (inactive) in each case.

As for `c1ccc(COc2cccc3cccnc23)cc1`, the GI50 in [1] is > 100 µM (inactive); in experiment [2] it was 36.3 µM (inactive); in experiment [4], 21.6 µM (inactive); in experiment [5], > 100 µM (inactive); in experiment [8] it was 67.3 µM (inactive); in [9], > 100 µM (inactive). Besides, the GI50 in [7] is 70.8 µM (inactive).

Regarding `O=C1NC2(NC(=O)C1=O)Nc1ccccc1S2`, the GI50 in experiment [1] is 23.7 µM (inactive); in experiment [2] it was 28.4 µM (inactive); in [3], 42.1 µM (inactive); in [4], > 100 µM (inactive); in experiment [5], > 100 µM (inactive); in [9], 20 µM (inactive). Further, the GI50 in [6] is > 67.1 µM (inactive).

Take `O=[As]O`: the GI50 in [1] was 17.8 µM (inactive); in [2], 13.1 µM (inactive); in experiment [3], 24.2 µM (inactive); in experiment [5], 48.3 µM (inactive); in [8], 20.5 µM (inactive); in experiment [9], 10.1 µM (inactive). Moreover, the GI50 is 12.6 µM (inactive) in [6] and 17.5 µM (inactive) in experiment [7].

In the case of `CC1=NN(C(=O)CC(=O)NC(=O)CC(=O)Nc2ccccc2F)C(=O)C1/N=N/c1ccc([N+](=O)[O-])cc1` (stereo unspecified), the GI50 in experiment [1] was 42.3 µM (inactive); in experiment [2], 21.1 µM (inactive); in [3], 39.1 µM (inactive); in experiment [4], 31.5 µM (inactive); in experiment [5], 29.8 µM (inactive); in experiment [8], 30.3 µM (inactive). Besides, the GI50 was 30.2 µM (inactive) in experiment [9], > 100 µM (inactive) in experiment [6] and 28.3 µM (inactive) in [7].

Take `CCCCOC(=O)NC(=O)c1cn(CCCOC(=O)NCCCCCCNC(=O)OCCCn2cc(C(=O)NC(=O)OCCCC)c(=O)[nH]c2=O)c(=O)[nH]c1=O`: the GI50 in experiment [1], in [2], in experiment [3], in [4], in [5] and in [8] was > 100 µM (inactive) each time. For the same compound, the GI50 in experiment [9] was > 100 µM (inactive); in experiment [6] it was > 100 µM (inactive); in experiment [7] it was 18.7 µM (inactive).

Take `Nc1cc2c(C3OC(CO)C(O)C3O)n[nH]c2c(=S)[nH]1` (stereo unspecified): the GI50 in experiment [1], in experiment [2], in [3], in experiment [5], in [8] and in [9] was > 100 µM (inactive) in each case. The GI50 in experiment [6] and in experiment [7] was > 100 µM (inactive) each time.

For `N#CCC(=O)Nc1ccccc1O`, the GI50 in experiment [1], in experiment [3], in [4], in experiment [5], in [8] and in [9] was > 100 µM (inactive) in each case. Also, the GI50 in experiment [6] and in [7] was > 100 µM (inactive) throughout.

As for `O=C(O)\C=C/C=C/C=C/C=C/C(=O)O`, the GI50 in [1], in experiment [2], in experiment [3], in [4], in experiment [5] and in [6] was > 100 µM (inactive) throughout.

`CC1(C)OC(=O)C(=Cc2ccc(O)cc2)C(=O)O1`: the GI50 in experiment [2], in experiment [3], in experiment [5], in [8], in [6] and in experiment [7] was > 100 µM (inactive) each time.

For the compound `CC(=O)OCC1OC(n2cc(I)c(=O)[nH]c2=O)C(OC(C)=O)C(OC(C)=O)C1OC(C)=O` (stereo unspecified), the GI50 in experiment [1], in [2], in experiment [3], in experiment [4], in experiment [5] and in experiment [8] was > 100 µM (inactive) each time. Besides, the GI50 in experiment [7] was > 100 µM (inactive).

`NC(=O)N/N=C(/Cc1nc2ccc(C(=O)c3ccccc3)cc2nc1O)C(=O)Nc1ccc(C(F)(F)F)cc1[N+](=O)[O-]`: the GI50 is > 100 µM (inactive) in experiment [1]; 52.1 µM (inactive) in experiment [2]; 51.9 µM (inactive) in [3]; 60.3 µM (inactive) in experiment [4]; 98.2 µM (inactive) in experiment [5]; > 100 µM (inactive) in experiment [8]. For the same compound, the GI50 in experiment [9] is 47 µM (inactive); in [6], > 100 µM (inactive); in experiment [7], 38.6 µM (inactive).
